According to patent publication US20250223300A1, “MACROCYCLIC COMPOUND AND PHARMACEUTICAL COMPOSITION AND USE THEREOF” (BETTA PHARMACEUTICALS CO., LTD, priority 2022, published 2025):

Experiments:
[1] = biological target: Ba/F3 cells overexpressing EGFR Del19/T790M/C797S (Homo sapiens, UniProt P00533, T790M/C797S, cells depend on it, form not given); experiment: Cell proliferation inhibitory activity assay, Ba/F3 EGFR Del19/T790M/C797S; assay type: cell-based; details: cell proliferation inhibition, 72 hours, luminescence; read-out: Ba/F3 cells overexpressing different EGFR mutations IC50 (nM) Del19/T790M/C797S
How it was run: (§1)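 Ba/F3 cells overexpressing the indicated EGFR mutants, grown in RPMI 1640 with 10% FBS, were treated with compound at 37 °C, 5% CO2. Cell survival inhibition rate plotted against log compound concentration; IC50 from four-parameter sigmoidal fit.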

[2] = biological target: Ba/F3 (EGFR L858R/T790M/C797S) (Homo sapiens, UniProt P00533, T790M/C797S/L858R, cells depend on it); experiment: Cell proliferation inhibitory activity assay, Ba/F3 EGFR L858R/T790M/C797S; assay type: cell-based; details: cell proliferation inhibition, 72 hours, luminescence; read-out: Ba/F3 cells overexpressing different EGFR mutations IC50 (nM) L858R/T790M/C797S
How it was run: as §1

Ba/F3 (EGFR Del19/C797S) = Ba/F3 (EGFR Del19/C797S) (Homo sapiens, UniProt P00533, C797S, cells depend on it, form not given); experiment: Cell proliferation inhibitory activity assay, Ba/F3 EGFR Del19/C797S; assay type: cell-based; details: cell proliferation inhibition, 72 hours, luminescence; read-out: Ba/F3 cells overexpressing different EGFR mutations IC50 (nM) Del19/C797S
How it was run: as §1

Ba/F3 (EGFR L858R/C797S) = Ba/F3 (EGFR L858R/C797S) (Homo sapiens, UniProt P00533, C797S/L858R, cells depend on it); experiment: Cell proliferation inhibitory activity assay, Ba/F3 EGFR L858R/C797S; assay type: cell-based; details: cell proliferation inhibition, 72 hours, luminescence; read-out: Ba/F3 cells overexpressing different EGFR mutations IC50 (nM) L858R/C797S
How it was run: as §1

[3] = test system: A431 cell carrying EGFR WT; experiment: Cell proliferation inhibitory activity assay, A431; assay type: cell-based; details: Homo sapiens, A-431; cell proliferation inhibition, 72 hours, luminescence
How it was run: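 A431 cells, an adherent human line carrying wild-type EGFR, were grown in DMEM supplemented with 10% FBS and 1% PS. Log-phase cells were trypsinized, counted and plated into 96-well plates at a set density, then left overnight at 37° C. and 5% CO2 to attach. IC50 values came from fitting inhibition rate against log compound concentration.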

[4] = Metabolic stability of liver microsomes, human; assay type: in vitro ADME; details: NADPH, 0-45 min, read-out: CLint(μL/min/mg protein) Human
Description: (§2) The liver microsomes of human, rat, mouse and dog were used to study the metabolic stability of the compounds. The specific experimental steps are as follows: • (1) Add 40 μL MgCl2 and 306 μL PBS to each well of a 96-well plate, and then add 4 μL compound, with a final DMSO concentration of ≤0.5%. Set up a blank well without compound; • (2) Add 10 μL of 20 mg/mL liver microsomes to each well, incubate at 37° C. for 10 min; • (3) Add 40 μL NADPH working solution to each well to start the reaction, and set up a control well without NADPH; • (4) At 0, 5, 15, and 45 min after the start of the reaction, 50 μL of sample was taken out, the termination solution was added, and the mixture was shaken for 5 min. • (5) The samples were then centrifuged at 3,220 g for 10 min, and 50 μL of the supernatant was removed and was added 200 μL water for dilution and analysis by LC-MS/MS.
(§3) The in vitro intrinsic clearance (in vitro CLint, in μL/min/mg) was calculated from the in vitro half-life t1/2 (minutes) using the following equation (mean of replicates):
(§4) In vitro clearance rate=0.693/in vitro half-life t1/2×[incubation volume (μL)/(protein amount (mg)]

[5] = Metabolic stability of liver microsomes, rat; assay type: in vitro ADME; details: NADPH, 0-45 min, read-out: CLint(μL/min/mg protein) Rat
Description: as §2, §3, §4

[6] = Metabolic stability of liver microsomes, mouse; assay type: in vitro ADME; details: NADPH, 0-45 min, read-out: CLint(μL/min/mg protein) Mouse
Description: as §2, §3, §4

[7] = Metabolic stability of liver microsomes, dog; assay type: in vitro ADME; details: NADPH, 0-45 min, read-out: CLint(μL/min/mg protein) Dog
Description: as §2, §3, §4

Sequence of Ba/F3 (EGFR Del19/C797S) (P00533 with tags, fused parts or gaps DEL746-750/C797S, form open): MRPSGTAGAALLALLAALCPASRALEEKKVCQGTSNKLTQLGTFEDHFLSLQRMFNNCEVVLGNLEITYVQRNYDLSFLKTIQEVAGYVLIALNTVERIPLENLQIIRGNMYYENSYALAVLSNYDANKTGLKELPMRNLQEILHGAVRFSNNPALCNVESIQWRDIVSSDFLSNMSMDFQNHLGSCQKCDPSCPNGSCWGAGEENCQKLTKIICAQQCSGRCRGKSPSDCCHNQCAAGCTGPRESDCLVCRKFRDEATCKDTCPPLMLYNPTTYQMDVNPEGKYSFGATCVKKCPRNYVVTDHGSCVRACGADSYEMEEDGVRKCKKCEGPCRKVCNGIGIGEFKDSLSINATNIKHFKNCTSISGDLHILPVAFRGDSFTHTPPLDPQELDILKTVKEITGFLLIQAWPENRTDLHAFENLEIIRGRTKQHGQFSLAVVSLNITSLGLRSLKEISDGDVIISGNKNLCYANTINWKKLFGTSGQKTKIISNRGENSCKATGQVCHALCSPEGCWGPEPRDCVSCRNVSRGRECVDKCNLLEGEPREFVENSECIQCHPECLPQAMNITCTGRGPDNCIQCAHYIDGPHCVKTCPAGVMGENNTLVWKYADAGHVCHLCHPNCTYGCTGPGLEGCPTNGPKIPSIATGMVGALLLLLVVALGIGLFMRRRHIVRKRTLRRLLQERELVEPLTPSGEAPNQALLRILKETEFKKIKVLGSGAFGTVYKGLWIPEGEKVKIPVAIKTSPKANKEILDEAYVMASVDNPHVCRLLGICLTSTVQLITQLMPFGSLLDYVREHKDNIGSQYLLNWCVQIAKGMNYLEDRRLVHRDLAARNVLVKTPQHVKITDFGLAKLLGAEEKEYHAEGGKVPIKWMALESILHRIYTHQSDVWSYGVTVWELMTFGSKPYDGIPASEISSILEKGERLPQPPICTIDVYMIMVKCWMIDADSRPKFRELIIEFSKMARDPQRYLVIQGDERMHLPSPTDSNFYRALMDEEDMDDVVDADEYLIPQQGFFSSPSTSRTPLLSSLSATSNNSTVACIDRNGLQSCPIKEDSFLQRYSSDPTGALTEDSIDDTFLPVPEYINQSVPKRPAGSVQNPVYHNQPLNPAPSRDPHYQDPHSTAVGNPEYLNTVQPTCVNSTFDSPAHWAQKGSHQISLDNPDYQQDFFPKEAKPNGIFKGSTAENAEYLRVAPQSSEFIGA
Sequence of Ba/F3 (EGFR L858R/T790M/C797S) (P00533 whole entry T790M/C797S/L858R): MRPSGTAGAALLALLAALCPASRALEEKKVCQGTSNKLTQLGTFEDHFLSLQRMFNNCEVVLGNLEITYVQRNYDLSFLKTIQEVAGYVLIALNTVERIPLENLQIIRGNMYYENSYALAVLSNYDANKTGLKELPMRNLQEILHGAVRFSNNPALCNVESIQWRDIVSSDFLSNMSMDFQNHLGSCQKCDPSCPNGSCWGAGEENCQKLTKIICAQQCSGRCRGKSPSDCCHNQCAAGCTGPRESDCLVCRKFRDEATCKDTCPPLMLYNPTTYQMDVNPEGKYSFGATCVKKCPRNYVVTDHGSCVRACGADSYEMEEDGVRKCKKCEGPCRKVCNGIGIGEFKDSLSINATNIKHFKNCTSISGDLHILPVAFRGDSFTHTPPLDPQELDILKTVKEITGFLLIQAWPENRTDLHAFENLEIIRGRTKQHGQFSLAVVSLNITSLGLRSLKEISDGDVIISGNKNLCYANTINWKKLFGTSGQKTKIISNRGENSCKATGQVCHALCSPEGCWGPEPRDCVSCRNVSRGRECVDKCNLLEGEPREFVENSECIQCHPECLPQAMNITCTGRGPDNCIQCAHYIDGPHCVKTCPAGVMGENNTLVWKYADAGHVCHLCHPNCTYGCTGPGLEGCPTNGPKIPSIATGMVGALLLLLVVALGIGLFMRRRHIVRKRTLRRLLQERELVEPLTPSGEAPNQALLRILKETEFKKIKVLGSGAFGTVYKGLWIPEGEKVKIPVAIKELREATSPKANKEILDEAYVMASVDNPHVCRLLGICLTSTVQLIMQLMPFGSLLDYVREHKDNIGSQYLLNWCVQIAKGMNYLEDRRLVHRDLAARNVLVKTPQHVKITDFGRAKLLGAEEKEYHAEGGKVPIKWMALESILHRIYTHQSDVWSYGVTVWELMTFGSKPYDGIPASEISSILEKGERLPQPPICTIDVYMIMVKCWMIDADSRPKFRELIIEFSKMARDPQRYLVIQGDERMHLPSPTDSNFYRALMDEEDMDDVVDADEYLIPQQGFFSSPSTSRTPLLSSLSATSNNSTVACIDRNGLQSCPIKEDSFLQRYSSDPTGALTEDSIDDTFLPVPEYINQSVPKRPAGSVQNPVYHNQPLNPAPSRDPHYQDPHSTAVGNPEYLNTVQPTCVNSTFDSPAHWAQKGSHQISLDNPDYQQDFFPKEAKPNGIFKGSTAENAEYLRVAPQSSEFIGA
Sequence of Ba/F3 (EGFR L858R/C797S) (P00533 whole entry C797S/L858R): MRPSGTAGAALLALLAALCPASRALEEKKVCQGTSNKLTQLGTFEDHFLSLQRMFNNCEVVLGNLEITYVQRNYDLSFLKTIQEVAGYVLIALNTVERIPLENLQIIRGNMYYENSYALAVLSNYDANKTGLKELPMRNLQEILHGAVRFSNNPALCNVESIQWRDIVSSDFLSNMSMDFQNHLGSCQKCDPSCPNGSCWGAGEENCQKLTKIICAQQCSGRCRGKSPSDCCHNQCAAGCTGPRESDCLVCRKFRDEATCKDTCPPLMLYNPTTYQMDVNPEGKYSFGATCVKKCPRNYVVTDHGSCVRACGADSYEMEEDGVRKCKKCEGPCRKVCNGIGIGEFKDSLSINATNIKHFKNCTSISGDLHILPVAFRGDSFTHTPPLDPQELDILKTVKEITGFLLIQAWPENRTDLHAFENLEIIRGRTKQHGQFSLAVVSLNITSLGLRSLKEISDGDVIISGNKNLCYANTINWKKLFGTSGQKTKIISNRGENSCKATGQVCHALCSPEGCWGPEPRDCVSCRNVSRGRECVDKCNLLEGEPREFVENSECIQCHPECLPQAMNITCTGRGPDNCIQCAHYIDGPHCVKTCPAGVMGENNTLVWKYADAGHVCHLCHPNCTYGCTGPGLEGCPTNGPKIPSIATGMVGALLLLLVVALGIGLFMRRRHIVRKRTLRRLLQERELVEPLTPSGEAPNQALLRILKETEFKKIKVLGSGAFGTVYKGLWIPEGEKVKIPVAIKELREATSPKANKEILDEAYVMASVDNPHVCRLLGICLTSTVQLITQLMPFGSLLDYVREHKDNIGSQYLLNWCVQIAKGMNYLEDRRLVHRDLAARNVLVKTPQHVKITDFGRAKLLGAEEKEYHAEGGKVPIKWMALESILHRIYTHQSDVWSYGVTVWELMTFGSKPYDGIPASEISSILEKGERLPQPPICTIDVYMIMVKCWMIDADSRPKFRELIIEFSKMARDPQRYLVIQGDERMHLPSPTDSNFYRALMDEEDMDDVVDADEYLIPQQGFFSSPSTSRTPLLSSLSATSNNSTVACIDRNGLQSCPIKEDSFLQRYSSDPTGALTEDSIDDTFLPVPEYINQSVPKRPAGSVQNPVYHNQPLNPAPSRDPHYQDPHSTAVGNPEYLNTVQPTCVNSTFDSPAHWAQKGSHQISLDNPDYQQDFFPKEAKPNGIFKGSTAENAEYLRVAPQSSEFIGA
Sequence of Ba/F3 cells overexpressing EGFR Del19/T790M/C797S (P00533 with tags, fused parts or gaps DEL746-750/T790M/C797S, form open): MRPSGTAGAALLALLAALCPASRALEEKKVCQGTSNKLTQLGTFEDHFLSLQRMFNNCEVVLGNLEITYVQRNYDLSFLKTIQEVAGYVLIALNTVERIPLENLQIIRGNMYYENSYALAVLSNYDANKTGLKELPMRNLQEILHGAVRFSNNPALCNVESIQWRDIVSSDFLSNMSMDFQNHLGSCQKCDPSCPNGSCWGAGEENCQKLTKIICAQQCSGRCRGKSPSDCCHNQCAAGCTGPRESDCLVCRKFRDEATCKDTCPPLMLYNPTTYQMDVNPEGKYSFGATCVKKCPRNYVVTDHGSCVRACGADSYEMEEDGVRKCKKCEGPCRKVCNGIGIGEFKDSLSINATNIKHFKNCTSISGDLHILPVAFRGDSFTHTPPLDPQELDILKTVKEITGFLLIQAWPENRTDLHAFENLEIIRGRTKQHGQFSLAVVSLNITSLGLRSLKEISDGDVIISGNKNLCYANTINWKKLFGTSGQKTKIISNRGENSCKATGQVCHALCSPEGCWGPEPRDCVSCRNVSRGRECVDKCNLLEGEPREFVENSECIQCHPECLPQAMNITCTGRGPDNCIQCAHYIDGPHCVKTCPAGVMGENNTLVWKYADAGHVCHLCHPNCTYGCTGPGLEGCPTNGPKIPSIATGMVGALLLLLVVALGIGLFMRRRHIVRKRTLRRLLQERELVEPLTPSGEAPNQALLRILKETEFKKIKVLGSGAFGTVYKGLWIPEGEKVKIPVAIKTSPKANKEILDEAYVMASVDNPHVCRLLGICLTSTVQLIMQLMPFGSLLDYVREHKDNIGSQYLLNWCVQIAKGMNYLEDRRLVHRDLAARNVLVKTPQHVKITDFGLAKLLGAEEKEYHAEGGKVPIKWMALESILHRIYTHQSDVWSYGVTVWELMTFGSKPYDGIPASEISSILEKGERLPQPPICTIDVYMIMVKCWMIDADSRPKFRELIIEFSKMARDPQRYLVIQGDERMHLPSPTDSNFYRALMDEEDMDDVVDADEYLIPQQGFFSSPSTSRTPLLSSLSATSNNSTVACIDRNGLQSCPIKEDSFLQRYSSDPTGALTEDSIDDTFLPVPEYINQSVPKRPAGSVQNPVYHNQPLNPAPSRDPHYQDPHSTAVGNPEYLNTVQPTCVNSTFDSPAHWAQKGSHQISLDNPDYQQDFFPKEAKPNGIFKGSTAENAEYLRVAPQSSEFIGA

GI50 [1] [nM] | GI50 [2] [nM] | GI50 (Ba/F3 (EGFR Del19/C797S)) [nM] | GI50 (Ba/F3 (EGFR L858R/C797S)) [nM] | IC50 [3] [nM] | microsomal CLint [4] [µL/min/mg] | microsomal CLint [5] [µL/min/mg] | microsomal CLint [6] [µL/min/mg] | microsomal CLint [7] [µL/min/mg] | Compound
0.61 | 0.98 | 0.19 | 0.88 | 331 | 9.1 | 8.9 | 22.8 | 2.2 | Cc1cc2cc(n1)-c1cnccc1OCCC[C@@H](C)Cn1c(nc3cc(F)c(N4CCC5(CCN(C)CC5)CC4)cc31)NC2=O [Example 5, (R)-5^5-fluoro-2^6,7-dimethyl-5^6-(9-methyl-3,9-diazaspiro[5.5]undecan-3-yl)-5^1H-11-oxa-4-aza-5(2,1)-benzo[d]imidazola-1(3,4),2(2,4)-dipyridinacycloundecaphan-3-one]
0.24 | 0.62 | 0.08 | 0.23 | 1640 | 7.2 | 14.2 | 32.7 | 8.9 | Cc1cc2cc(n1)-c1cnccc1OCCCCCn1c(nc3ccc(N4CCC5(CCN(C)CC5)CC4)cc31)NC2=O [Example 1, 2^6-methyl-5^6-(9-methyl-3,9-diazaspiro[5.5]undecan-3-yl)-5^1H-11-oxa-4-aza-5(2,1)-benzo[d]imidazola-1(3,4),2(2,4)-dipyridinacycloundecaphan-3-one]
